Measurements as given in US20260285850A1, “SUBSTITUTED OXAZOLIDINONES AND IMIDAZOLINONES AS HERBICIDES” (FMC CORPORATION, priority 2023, published 2026).

Columns and labels:
Type in all cases: in vivo
[1] = system: barnyardgrass (Echinochloa crus-galli); assay: Test A preemergence soil spray, visual injury rating 0-100; conditions: 10 days
Procedure, shortened: (§1)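 Preemergence directed soil spray or postemergence spray (2-10 cm, 1-2 leaf); loam/sand mix; compound in non-phytotoxic solvent + surfactant. Greenhouse, 10 d. Visual injury vs untreated, 0 = none, 100 = complete control.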

[2] = system: blackgrass (Alopecurus myosuroides); assay: as above; conditions: 10 days
Procedure, shortened: as §1

[3] = system: corn (Zea mays); assay: as above; conditions: 10 days
Procedure, shortened: as §1

[4] = system: green foxtail (Setaria viridis); assay: as above; conditions: 10 days
Procedure, shortened: as §1

[5] = system: kochia (Bassia scoparia); assay: as above; conditions: 10 days
Procedure, shortened: as §1

[6] = system: oat, wild (wild oat, Avena fatua); assay: as above; conditions: 10 days
Procedure, shortened: as §1

[7] = system: palmer (palmer amaranth, palmer pigweed, Amaranthus palmeri); assay: as above; conditions: 10 days
Procedure, shortened: as §1

[8] = system: ragweed (common ragweed, Ambrosia artemisiifolia); assay: as above; conditions: 10 days
Procedure, shortened: as §1

[9] = system: ryegrass, Italian (italian ryegrass, Lolium multiflorum); assay: as above; conditions: 10 days
Procedure, shortened: as §1

[10] = system: soybean (Glycine max); assay: as above; conditions: 10 days
Procedure, shortened: as §1

[11] = system: wheat (Triticum aestivum); assay: as above; conditions: 10 days
Procedure, shortened: as §1

[12] = system: barnyardgrass (Echinochloa crus-galli); assay: Test A postemergence application, visual injury rating 0-100; conditions: for Barnyardgrass plant response rating (0-100): postemergence, 0 = no effect, 100 = complete control; for Barnyardgrass plant response rating (0 to 100 scale): Postemergence
Procedure, shortened: as §1

[13] = system: blackgrass (Alopecurus myosuroides); assay: as above; conditions: for Blackgrass plant response rating (0-100): postemergence, 0 = no effect, 100 = complete control; for Blackgrass plant response rating (0 to 100 scale): Postemergence
Procedure, shortened: as §1

[14] = system: corn (Zea mays); assay: as above; conditions: for Corn plant response rating (0-100): postemergence, 0 = no effect, 100 = complete control; for Corn plant response rating (0 to 100 scale): Postemergence
Procedure, shortened: as §1

[15] = system: galium (catchweed bedstraw, Galium aparine); assay: as above; conditions: for Galium plant response rating (0-100): postemergence, 0 = no effect, 100 = complete control; for Galium plant response rating (0 to 100 scale): Postemergence
Procedure, shortened: as §1

[16] = system: green foxtail (Setaria viridis); assay: as above; conditions: for Foxtail, Green plant response rating (0-100): postemergence, 0 = no effect, 100 = complete control; for Foxtail, Green plant response rating (0 to 100 scale): Postemergence
Procedure, shortened: as §1

[17] = system: horseweed (Erigeron canadensis); assay: as above; conditions: for Horseweed plant response rating (0-100): postemergence, 0 = no effect, 100 = complete control; for Horseweed plant response rating (0 to 100 scale): Postemergence
Procedure, shortened: as §1

[18] = system: kochia (Bassia scoparia); assay: as above; conditions: for Kochia plant response rating (0-100): postemergence, 0 = no effect, 100 = complete control; for Kochia plant response rating (0 to 100 scale): Postemergence
Procedure, shortened: as §1

[19] = system: oat, wild (wild oat, Avena fatua); assay: as above; conditions: for Oat, Wild plant response rating (0-100): postemergence, 0 = no effect, 100 = complete control; for Oat, Wild plant response rating (0 to 100 scale): Postemergence
Procedure, shortened: as §1

[20] = system: palmer (palmer amaranth, palmer pigweed, Amaranthus palmeri); assay: as above
Procedure, shortened: as §1

[21] = system: ragweed (common ragweed, Ambrosia artemisiifolia); assay: as above; conditions: for Ragweed plant response rating (0-100): postemergence, 0 = no effect, 100 = complete control; for Ragweed plant response rating (0 to 100 scale): Postemergence
Procedure, shortened: as §1

[22] = system: ryegrass, Italian (italian ryegrass, Lolium multiflorum); assay: as above; conditions: for Ryegrass, Italian plant response rating (0-100): postemergence, 0 = no effect, 100 = complete control; for Ryegrass, Italian plant response rating (0 to 100 scale): Postemergence
Procedure, shortened: as §1

[23] = system: soybean (Glycine max); assay: as above; conditions: for Soybean plant response rating (0-100): postemergence, 0 = no effect, 100 = complete control; for Soybean plant response rating (0 to 100 scale): Postemergence
Procedure, shortened: as §1

[24] = system: wheat (Triticum aestivum); assay: as above; conditions: for Wheat plant response rating (0-100): postemergence, 0 = no effect, 100 = complete control; for Wheat plant response rating (0 to 100 scale): Postemergence
Procedure, shortened: as §1

[25] = system: barnyardgrass (Echinochloa crusgalli); assay: Test B flooded paddy test, visual plant response rating 0-100; conditions: 250 g ai/ha, Flood, applied to paddy water, evaluated after 13 days
Procedure, shortened: (§2)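 Each species was raised to two leaves before flooding to a 3 cm depth and dosing the water with compound. Injury was assessed by eye after 13 days under greenhouse conditions.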

[26] = system: ducksalad (Heteranthera limosa); assay: as above; conditions: 250 g ai/ha, Flood, applied to paddy water, evaluated after 13 days
Procedure, shortened: as §2

[27] = system: rice (Oryza sativa); assay: as above; conditions: 250 g ai/ha, Flood, applied to paddy water, evaluated after 13 days
Procedure, shortened: as §2

[28] = system: sedge, umbrella (small-flower umbrella sedge, Cyperus difformis); assay: as above; conditions: 250 g ai/ha, Flood, applied to paddy water, evaluated after 13 days
Procedure, shortened: as §2

[29] = 31 g ai/ha, 0 = no effect, 100 = complete control
[30] = 125 g ai/ha, 0 = no effect, 100 = complete control
[31] = 125 g ai/ha, 10 days, 0 is no effect, 100 is complete control
[32] = 62 g ai/ha, 0 = no effect, 100 = complete control
[33] = 16 g ai/ha, greenhouse 10 days, 0 no effect, 100 complete control

CCOC(=O)COC(=O)C1C=CC(NC(=O)C2(C)CN(c3cc(F)cc(F)c3)C(=O)O2)C1 (centres unmarked) [Compound 53]
80: Blackgrass plant response rating (0 to 100 scale) [13, 31] | Galium plant response rating (0-100) ([15]; 31 g ai/ha, 10 days) | Galium plant response rating (0 to 100 scale) [15, 31] | Kochia plant response rating (0-100) ([18]; 31 g ai/ha, 10 days) | Kochia plant response rating (0 to 100 scale) [18, 31] | Ragweed plant response rating (0 to 100 scale) [21, 31]
70: Ryegrass, Italian plant response rating (0-100) [9, 29] | Soybean plant response rating (0 to 100 scale) [10, 30] | Wheat plant response rating (0-100) [11, 29] | Blackgrass plant response rating (0-100) ([13]; 31 g ai/ha, 10 days) | Foxtail, Green plant response rating (0 to 100 scale) [16, 31] | Horseweed plant response rating (0 to 100 scale) [17, 31] | Amaranth, Palmer plant response rating (0-100) ([20]; 31 g ai/ha, postemergence, 10 days, 0 = no effect, 100 = complete control) | Soybean plant response rating (0-100) ([23]; 31 g ai/ha, 10 days) | Soybean plant response rating (0 to 100 scale) [23, 31]
30: Barnyardgrass plant response rating (0-100) [1, 29] | Amaranth, Palmer plant response rating (0-100) [7, 29] | Soybean plant response rating (0-100) [10, 29]
90: Blackgrass plant response rating (0 to 100 scale) [2, 30] | Kochia plant response rating (0 to 100 scale) [5, 30] | Oat, Wild plant response rating (0 to 100 scale) [6, 30] | Wheat plant response rating (0 to 100 scale) [11, 30] | Oat, Wild plant response rating (0-100) ([19]; 31 g ai/ha, 10 days) | Oat, Wild plant response rating (0 to 100 scale) [19, 31] | Amaranth, Palmer / Pigweed, Palmer plant response rating (0 to 100 scale) ([20]; Postemergence, 125 g ai/ha, 10 days, 0 is no effect, 100 is complete control) | Ryegrass, Italian plant response rating (0-100) ([22]; 31 g ai/ha, 10 days) | Ryegrass, Italian plant response rating (0 to 100 scale) [22, 31] | Wheat plant response rating (0-100) ([24]; 31 g ai/ha, 10 days) | Wheat plant response rating (0 to 100 scale) [24, 31] | Plant response rating, Barnyardgrass (0 to 100 scale, 0 is no effect and 100 is complete control) [25] | Plant response rating, Ducksalad (0 to 100 scale, 0 is no effect and 100 is complete control) [26]
60: Corn plant response rating (0 to 100 scale) [3, 30] | Amaranth, Palmer plant response rating (0 to 100 scale) [7, 30] | Horseweed plant response rating (0-100) ([17]; 31 g ai/ha, 10 days) | Plant response rating, Sedge, Umbrella (0 to 100 scale, 0 is no effect and 100 is complete control) [28]
0: Corn plant response rating (0-100) [3, 29] | Foxtail, Green plant response rating (0-100) [4, 29] | Kochia plant response rating (0-100) [5, 29] | Ragweed plant response rating (0-100) [8, 29]
100: Barnyardgrass plant response rating (0 to 100 scale) [1, 30] | Ryegrass, Italian plant response rating (0 to 100 scale) [9, 30] | Barnyardgrass plant response rating (0-100) ([12]; 31 g ai/ha, 10 days) | Barnyardgrass plant response rating (0 to 100 scale) [12, 31] | Corn plant response rating (0-100) ([14]; 31 g ai/ha, 10 days) | Corn plant response rating (0 to 100 scale) [14, 31]
20: Foxtail, Green plant response rating (0 to 100 scale) [4, 30] | Ragweed plant response rating (0 to 100 scale) [8, 30] | Plant response rating, Rice (0 to 100 scale, 0 is no effect and 100 is complete control) [27]
50: Blackgrass plant response rating (0-100) [2, 29] | Oat, Wild plant response rating (0-100) [6, 29] | Foxtail, Green plant response rating (0-100) ([16]; 31 g ai/ha, 10 days) | Ragweed plant response rating (0-100) ([21]; 31 g ai/ha, 10 days)

CC(C)COC(=O)C1=CCC(NC(=O)C2(C)CN(c3cc(Cl)cc(Cl)c3)C(=O)O2)C1 (centres unmarked) [Compound 156]
60: Ryegrass, Italian plant response rating (0 to 100 scale) [22, 33] | Soybean plant response rating (0-100) ([23]; 62 g ai/ha, 10 days)
20: Kochia plant response rating ([5]; 16 g ai/ha, 0 to 100 scale) | Pigweed, Palmer plant response rating ([7]; 16 g ai/ha, 0 to 100 scale) | Oat, Wild plant response rating (0 to 100 scale) [19, 33]
75: Plant response rating, Ducksalad (0 to 100 scale, 0 is no effect and 100 is complete control) [26]
45: Plant response rating, Rice (0 to 100 scale, 0 is no effect and 100 is complete control) [27]
100: Barnyardgrass plant response rating (0-100) ([12]; 62 g ai/ha, 10 days) | Barnyardgrass plant response rating (0 to 100 scale) [12, 33] | Corn plant response rating (0-100) ([14]; 62 g ai/ha, 10 days)
55: Plant response rating, Barnyardgrass (0 to 100 scale, 0 is no effect and 100 is complete control) [25]
0: Barnyardgrass plant response rating ([1]; 16 g ai/ha, 0 to 100 scale) | Blackgrass plant response rating ([2]; 16 g ai/ha, 0 to 100 scale) | Corn plant response rating ([3]; 16 g ai/ha, 0 to 100 scale) | Oat, Wild plant response rating ([6]; 16 g ai/ha, 0 to 100 scale) | Oat, Wild plant response rating (0-100) [6, 32] | Ragweed plant response rating ([8]; 16 g ai/ha, 0 to 100 scale) | Ragweed plant response rating (0-100) [8, 32] | Ryegrass, Italian plant response rating ([9]; 16 g ai/ha, 0 to 100 scale) | Soybean plant response rating ([10]; 16 g ai/ha, 0 to 100 scale) | Soybean plant response rating (0-100) [10, 32]
80: Pigweed, Palmer plant response rating (0-100) [7, 32] | Galium plant response rating (0-100) ([15]; 62 g ai/ha, 10 days) | Galium plant response rating (0 to 100 scale) [15, 33] | Foxtail, Green plant response rating (0 to 100 scale) [16, 33] | Horseweed plant response rating (0-100) ([17]; 62 g ai/ha, 10 days) | Kochia plant response rating (0-100) ([18]; 62 g ai/ha, 10 days) | Kochia plant response rating (0 to 100 scale) [18, 33]
90: Foxtail, Green plant response rating (0-100) [4, 32] | Blackgrass plant response rating (0-100) ([13]; 62 g ai/ha, 10 days) | Corn plant response rating (0 to 100 scale) [14, 33] | Foxtail, Green plant response rating (0-100) ([16]; 62 g ai/ha, 10 days) | Pigweed, Palmer plant response rating (0-100) ([20]; 62 g ai/ha, postemergence, 10 days, 0 = no effect, 100 = complete control) | Pigweed, Palmer plant response rating (0 to 100 scale) ([20]; Postemergence, 16 g ai/ha, greenhouse 10 days, 0 no effect, 100 complete control) | Plant response rating, Sedge, Umbrella (0 to 100 scale, 0 is no effect and 100 is complete control) [28]
30: Blackgrass plant response rating (0-100) [2, 32] | Ryegrass, Italian plant response rating (0-100) [9, 32] | Horseweed plant response rating (0 to 100 scale) [17, 33] | Ragweed plant response rating (0 to 100 scale) [21, 33]
50: Barnyardgrass plant response rating (0-100) [1, 32] | Corn plant response rating (0-100) [3, 32] | Wheat plant response rating (0-100) [11, 32] | Ragweed plant response rating (0-100) ([21]; 62 g ai/ha, 10 days) | Soybean plant response rating (0 to 100 scale) [23, 33] | Wheat plant response rating (0 to 100 scale) [24, 33]
70: Kochia plant response rating (0-100) [5, 32] | Blackgrass plant response rating (0 to 100 scale) [13, 33] | Oat, Wild plant response rating (0-100) ([19]; 62 g ai/ha, 10 days) | Ryegrass, Italian plant response rating (0-100) ([22]; 62 g ai/ha, 10 days) | Wheat plant response rating (0-100) ([24]; 62 g ai/ha, 10 days)
10: Wheat plant response rating ([11]; 16 g ai/ha, 0 to 100 scale)
40: Foxtail, Green plant response rating ([4]; 16 g ai/ha, 0 to 100 scale)
